Assay results as given in PMC11724841 (Communications Biology, 2025).

Columns and labels:
iso-3 HiPIP = target: T1, iso-3 HiPIP (Halorhodospira halophila, UniProt A1WXH6); experiment: cryo-EM structure, […] Å; type: binding; details: native complex; functional N-terminal domain
T1 sequence (A1WXH6 26-145): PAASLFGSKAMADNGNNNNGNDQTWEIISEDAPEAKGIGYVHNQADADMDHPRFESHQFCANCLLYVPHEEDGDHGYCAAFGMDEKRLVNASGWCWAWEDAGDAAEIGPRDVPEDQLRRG

[1] = target: Hlr. halophila RC (in LH1–RC–HiPIP complex) (Halorhodospira halophila, UniProt A1WXF6+A1WXF7); experiment: cryo-EM structure, […] Å; type: binding; details: native complex
Sequence of Hlr. halophila RC (in LH1–RC–HiPIP complex) (A1WXF7 1-276): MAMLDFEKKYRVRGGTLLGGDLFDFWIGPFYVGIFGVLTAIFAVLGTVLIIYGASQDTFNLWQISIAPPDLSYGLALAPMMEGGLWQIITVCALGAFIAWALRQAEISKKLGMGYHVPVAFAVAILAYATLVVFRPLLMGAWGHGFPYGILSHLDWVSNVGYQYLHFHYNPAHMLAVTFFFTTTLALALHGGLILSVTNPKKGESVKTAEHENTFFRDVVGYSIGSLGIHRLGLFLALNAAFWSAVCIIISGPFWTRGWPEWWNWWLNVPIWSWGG
Sequence of Hlr. halophila RC (in LH1–RC–HiPIP complex) (A1WXF6 1-323): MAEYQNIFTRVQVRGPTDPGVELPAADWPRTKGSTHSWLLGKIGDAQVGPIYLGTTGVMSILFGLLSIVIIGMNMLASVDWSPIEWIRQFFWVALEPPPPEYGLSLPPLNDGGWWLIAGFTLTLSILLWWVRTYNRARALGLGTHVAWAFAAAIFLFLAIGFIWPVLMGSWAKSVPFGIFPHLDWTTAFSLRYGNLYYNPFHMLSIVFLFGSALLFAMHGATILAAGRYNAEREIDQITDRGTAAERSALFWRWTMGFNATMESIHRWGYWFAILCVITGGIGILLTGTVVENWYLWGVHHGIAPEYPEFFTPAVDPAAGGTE
Sequence of Hlr. halophila RC (in LH1–RC–HiPIP complex) (A1WXI3 1-278 partner): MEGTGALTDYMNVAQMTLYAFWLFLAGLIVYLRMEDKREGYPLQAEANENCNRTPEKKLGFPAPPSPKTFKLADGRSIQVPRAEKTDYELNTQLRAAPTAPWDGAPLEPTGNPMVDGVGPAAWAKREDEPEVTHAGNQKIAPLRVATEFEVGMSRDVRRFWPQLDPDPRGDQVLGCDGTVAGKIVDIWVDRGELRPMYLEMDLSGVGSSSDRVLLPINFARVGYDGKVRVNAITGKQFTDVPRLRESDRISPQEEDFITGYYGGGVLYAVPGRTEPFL
Sequence of Hlr. halophila RC (in LH1–RC–HiPIP complex) (A1WXF5 26-362 partner): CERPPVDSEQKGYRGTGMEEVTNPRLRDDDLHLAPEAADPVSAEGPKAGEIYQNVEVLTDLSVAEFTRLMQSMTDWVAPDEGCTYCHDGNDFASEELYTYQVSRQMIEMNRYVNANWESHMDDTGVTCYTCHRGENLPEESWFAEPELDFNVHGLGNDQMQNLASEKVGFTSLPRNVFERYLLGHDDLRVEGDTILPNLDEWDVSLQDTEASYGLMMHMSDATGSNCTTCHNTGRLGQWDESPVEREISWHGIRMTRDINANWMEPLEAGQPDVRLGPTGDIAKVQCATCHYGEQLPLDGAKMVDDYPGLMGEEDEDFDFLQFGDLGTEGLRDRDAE

[2] = target: Halorhodospira halophila LH1–RC core complex (Halorhodospira halophila strain BN9622); experiment: cryo-EM structure

[S]12[Fe]3[S]4[Fe]1[S]1[Fe]2[S]3[Fe]41 [4Fe–4S, 4Fe–4S cluster]
cryo-EM structure, 2.44 Å (iso-3 HiPIP): N-terminal functional portion containing the 4Fe–4S cluster

CC[C@H]1c2cc3[nH]c4c(c3C)C(=O)[C@H](C(=O)OC)c4c3nc(cc4[nH]c(cc(n2)[C@@H]1C)c(C(C)=O)c4C)[C@@H](C)[C@@H]3CCC(=O)OC/C=C(\C)CCC[C@H](C)CCC[C@H](C)CCCC(C)C [BPhe]
cryo-EM structure, 2.44 Å ([1]; RC pigment, printed only as BPhe): BPhe, orange sticks

CC(C)=CCC/C(C)=C/CC/C(C)=C/CC/C(C)=C/CC/C(C)=C/CC/C(C)=C/CC/C(C)=C/CC/C(C)=C/CC1=C(C)C(=O)c2ccccc2C1=O [MQ-8, menaquinone-8]
cryo-EM structure, 2.44 Å ([1]; QA site): one MQ-8 and one UQ-8 were identified unambiguously at the RC QA and QB sites

COC1=C(OC)C(=O)C(C/C=C(\C)CC/C=C(\C)CC/C=C(\C)CC/C=C(\C)CC/C=C(\C)CC/C=C(\C)CC/C=C(\C)CCC=C(C)C)=C(C)C1=O [UQ-8, ubiquinone-8]
cryo-EM structure, 2.44 Å ([1]; QB site): one MQ-8 and one UQ-8 were identified unambiguously at the RC QA and QB sites

Halorhodospira halophila iso-3 high-potential iron–sulfur protein (HiPIP) (natural protein)
percent of LH1–RC particles with bound HiPIP [2]: 66.7%
